In US10624881B2, “Methods for inducing apoptosis in cancer cells” (Health Research, Inc., priority 2015, dated 2020):
Like-named read-outs stand apart in the source and are kept apart here.

How the values were obtained:
Raji4RH cells = assay: RRCL proliferation assay, drug-resistant lymphoma Raji4RH cells; type: cell-based; conditions: for IC50: 3-day treatment
RL4RH cells = assay: RRCL proliferation assay, drug-resistant lymphoma RL4RH cells; type: cell-based; conditions: for IC50: 3-day treatment
NALM6-shp53 = assay: Cell proliferation assay, NALM6-shp53 cells (p53 shRNA knockdown); type: cell-based
Method: Proliferation and apoptosis assays. Growth inhibition assays and apoptosis assays were carried out as described previously.

NALM6 = assay: Cell proliferation assay, NALM6 cells; type: cell-based; conditions: 72 h, read-out: IC50 of Compounds, NALM6
mouse bone marrow cells = conditions: for IC50: read-out: IC50, CFU-GM, mouse bone marrow cells, 7-day continuous treatment
Method: For the bone marrow toxicity assay, the following method was used. 400 μL of murine marrow mononuclear cells (2.0×10^5/mL) in IMDM containing 20% FBS, 10 units/mL recombinant murine GM-CSF, 10% of a 10× drug solution or control solution (DMSO), and 0.3% agarose were pipetted into microwells containing a 0.4-mL underlayer of IMDM and 0.3% agarose. The cultures were allowed to gel at 4° C. for 15 min and incubated at 37° C. in a fully humidified atmosphere of 5% CO2 in air for 7 days. CFU-GM colonies (aggregates of ≥40 cells) were counted with an inverted microscope using phase contrast. Percent survivals were calculated as 100× (the number of colonies in the drug-treated groups divided by the number of colonies in the vehicle control-treated group). IC50 values were determined.

Mdm2 RING domain = biological target: T1, Mdm2 RING domain (Homo sapiens, UniProt Q00987, DEL223-299); assay: In vitro autoubiquitination of Mdm2 RING domain (RING-RING homo-dimers); type: biochemical; conditions: compound 10 μM, Western blot
T1 construct: made in house; host or cells: insect cells (recombinant baculovirus)
T1 sequence (Q00987 with tags, fused parts or gaps isoform Q00987-2 DEL28-104): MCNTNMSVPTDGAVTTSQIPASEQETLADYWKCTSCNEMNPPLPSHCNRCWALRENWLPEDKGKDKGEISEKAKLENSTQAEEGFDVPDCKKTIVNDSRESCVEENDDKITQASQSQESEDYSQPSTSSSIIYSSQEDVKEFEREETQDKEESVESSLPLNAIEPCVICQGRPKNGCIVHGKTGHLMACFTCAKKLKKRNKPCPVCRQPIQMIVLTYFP
Method: In vitro ubiquitination assays were performed with Mdm2 (100 nM) and MdmX (200 nM) in the presence of nothing (C), DMSO (10 μM) or indicated compounds (10 μM), followed by WB of Mdm2 with anti-HA antibody. […] In vitro ubiquitination assays were performed with Mdm2-RING domain (100 nM) in the presence of nothing (C), DMSO (10 μM) or indicated compounds (10 μM), followed by WB of Mdm2 with anti-HA. […] FLAG-MdmX and HA-Mdm2-RING domain (HA-Mdm2R) were incubated in vitro in the presence of nothing (positive control), or DMSO (10 μM) or indicated compounds (10 μM), followed by pulldown with anti-FLAG-beads (M2) and WB of MdmX and Mdm2-RING domain with anti-FLAG and anti-HA antibodies respectively. The negative control (Neg) contains all components as in positive control sample except for missing of FLAG-MdmX.
To directly evaluate the ability of these compounds in inhibiting Mdm2-MdmX interaction, we performed in vitro pulldown experiments using recombinant FLAG-MdmX and HA-Mdm2RING proteins. After incubation of the two proteins in test tubes in the presence or absence of test compounds for 30 min at RT, FLAG-MdmX was pulled down with anti-FLAG beads followed by detection of MdmX-bound HA-Mdm2RING domain by Western blotting for HA-tag.
(§1) Materials and Methods. Plasmids, Protein Purification, and Chemical Reagents. FLAG-MdmX and HA-Mdm2 (human) constructs for insect cell expression and protein purification were described previously. HA-ubiquitin construct was generated by inserting HA-tag to the N-terminus of ubiquitin in pET28a vector. The mammalian expression plasmid pcDNA3.1-HdmX was a gift from Dr. Gokul Das (Roswell Park Cancer Institute).

Mdm2-MdmX E3 ligase = biological target: T2, Mdm2-MdmX E3 ligase (Homo sapiens, UniProt O15151); assay: In vitro MdmX-stimulated Mdm2 autoubiquitination (Western blot); type: biochemical; conditions: compound 10 μM
T2 construct: FLAG; made in house; host or cells: insect cells (baculovirus)
T2 sequence (O15151 1-490): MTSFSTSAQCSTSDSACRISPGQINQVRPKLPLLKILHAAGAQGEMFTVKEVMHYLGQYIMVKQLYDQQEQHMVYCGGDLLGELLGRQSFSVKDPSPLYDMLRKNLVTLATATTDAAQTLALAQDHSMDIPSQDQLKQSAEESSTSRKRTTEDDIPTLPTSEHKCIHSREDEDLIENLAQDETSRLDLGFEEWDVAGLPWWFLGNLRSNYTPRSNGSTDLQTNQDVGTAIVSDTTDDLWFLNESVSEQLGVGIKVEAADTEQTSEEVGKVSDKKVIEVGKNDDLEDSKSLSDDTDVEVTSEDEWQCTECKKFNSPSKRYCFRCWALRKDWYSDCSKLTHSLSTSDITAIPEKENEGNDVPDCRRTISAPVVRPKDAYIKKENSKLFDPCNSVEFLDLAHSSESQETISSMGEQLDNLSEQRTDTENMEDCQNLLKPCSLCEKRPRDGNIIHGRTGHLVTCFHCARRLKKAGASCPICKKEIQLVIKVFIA
Source text: as §1
In vitro validation assays by Mdm2 autoubiquitination and p53 ubiquitination by Mdm2-MdmX and NEDD4-1 autoubiquitination. In order to test the compound specificity, we used two sets of ubiquitination reaction. One is MdmX stimulated Mdm2 autoubiquitination, the other is NEDD4-1 autoubiquitination. […] The former reaction includes 100 nM HA-tagged Mdm2 and 200 nM MdmX, and latter reaction includes 200 nM HA-tagged NEDD4-1. After adding compound to final concentration of 10 μM, the reaction was started by incubation at 30° C. in a water bath for one hour. Then the reaction was stopped by adding SDS sample buffer, followed by SDS-PAGE and Western blot analysis for HA or NEDD4-1. In vitro assays for p53 ubiquitination by Mdm2-MdmX were performed as described previously. Briefly, reactions were carried out as described above for Mdm2 autoubiquitination except for addition of 100 nM p53. Compounds or DMSO of final concentrations of 10 μM were added in the reaction before starting the reaction at 30° C. for 1 h followed by WB of p53 with DO-1 antibody.

NALM6-shp53 cells = assay: Apoptosis markers in NALM6-shp53 cells (Western blot); type: cell-based; conditions: NALM6-shp53 versus NALM6, 24 h
Source text: Actin was the loading control.

NALM6 cells = assay: Flow cytometry of sub-G1 population in NALM6 cells (PI staining); type: cell-based
Source text: Sub-G1 fractions of each treatment were shown.
Proliferation and apoptosis assays.

[1] = system: p53 pathway in HCT8 cells; conditions: Western blot, time- and concentration-dependent
[2] = system: p53 pathway in NALM6 cells

COc1cc([C@@H]2c3cc4c(cc3[C@@H](O[C@@H]3O[C@@H]5CO[C@@H](C)O[C@H]5[C@H](O)[C@H]3O)[C@H]3COC(=O)[C@H]23)OCO4)cc(OC)c1O [Etoposide, etoposide]
IC50 (Raji4RH cells): 1700 nM | TW BM/CC, Raji4RH (Raji4RH cells; therapeutic window, CFU-GM IC50 versus Raji4RH IC50): −5x | IC50 (RL4RH cells): 6300 nM | TW BM/CC, RL4RH (RL4RH cells; therapeutic window, CFU-GM IC50 versus RL4RH IC50): −19x | IC50 (NALM6-shp53; 72 h, listed as marked (nM), read-out: IC50 of Compounds, NALM6-shp53): 19.9 nM | Fold change (NALM6-shp53; IC50 NALM6-shp53 versus NALM6, 72 h): 9x | IC50 (NALM6; listed as marked (nM)): 2.23 nM | fold more toxic to normal mouse bone marrow cells (mouse bone marrow cells): 5 fold | fold more toxic to normal mouse bone marrow cells relative to RRCLs (mouse bone marrow cells): 5-20 fold | IC50 (mouse bone marrow cells): 320 nM

Oc1c(C(Nc2ccccn2)c2ccc(Cl)c(Cl)c2)ccc2cccnc12 (stereo not shown) [MMRi61]
inhibition of autoubiquitination of Mdm2 RING domain (RING-RING homo-dimers) (Mdm2 RING domain): do not inhibit | inhibition of Mdm2 autoubiquitination stimulated by MdmX (Mdm2-MdmX E3 ligase): inhibit

Oc1c(C(Nc2ccccn2)c2cccc(Cl)c2Cl)ccc2cccnc12 (stereo not shown) [MMRi62]
inhibition of autoubiquitination of Mdm2 RING domain (RING-RING homo-dimers) (Mdm2 RING domain): do not inhibit | inhibition of Mdm2 autoubiquitination stimulated by MdmX (Mdm2-MdmX E3 ligase): inhibit

Oc1c(C(Nc2ccccn2)c2cccc(Br)c2)cc(Cl)c2cccnc12 (stereo not shown) [MMRi63]
inhibition of autoubiquitination of Mdm2 RING domain (RING-RING homo-dimers) (Mdm2 RING domain): do not inhibit | inhibition of Mdm2 autoubiquitination stimulated by MdmX (Mdm2-MdmX E3 ligase): inhibit

Cc1ccnc(NC(c2cccc(Cl)c2Cl)c2ccc3cccnc3c2O)c1 (stereo not shown) [MMRi64]
IC50 (Raji4RH cells): 180 nM | IC50 (RL4RH cells): 1000 nM | effect of shRNA knockdown of p53 on apoptosis induction (NALM6-shp53 cells): did not affect apoptosis induction | IC50 (NALM6): 145 nM | IC50 (mouse bone marrow cells): 1600 nM | sub-G1 population (NALM6 cells; 0.2 μM, single treatment, combination experiment): 0.73% | sub-G1 population (NALM6 cells; 0.4 μM, single treatment, combination experiment): 2.5% | sub-G1 population (NALM6 cells; 0.5 μM, 48 h): 7.3% | sub-G1 population (NALM6 cells; 1 μM, 48 h): 20%

Oc1c(C(Nc2ccccn2)c2ccccc2Br)cc(Cl)c2cccnc12 (stereo not shown) [MMRi65]
inhibition of autoubiquitination of Mdm2 RING domain (RING-RING homo-dimers) (Mdm2 RING domain): do not inhibit | inhibition of Mdm2 autoubiquitination stimulated by MdmX (Mdm2-MdmX E3 ligase): inhibit

COc1ccc(C2=N[C@@H](c3ccc(Cl)cc3)[C@@H](c3ccc(Cl)cc3)N2C(=O)N2CCNC(=O)C2)c(OC(C)C)c1 [Nutlin3a, reference compound]
effect on MdmX level in HCT8 cells [1]: not obvious | PUMA induction in NALM6 cells ([2]; 1 μM, time course): stronger p53 accumulation and PUMA induction than MMRi64 | p21 induction in NALM6 cells ([2]; 1 μM, time course to 24 h): strong induction of growth-arresting effector p21 | effect on Mdm2 expression in NALM6 cells ([2]; Western blot): strong induction of Mdm2 protein | effect on MdmX levels in NALM6 cells ([2]; Western blot): slightly decreased MdmX levels | IC50 (NALM6): 1270 nM | sub-G1 population (NALM6 cells; 0.5 μM, 48 h): 0.4% | sub-G1 population (NALM6 cells; 1 μM, 48 h): 0.8% | sub-G1 population (NALM6 cells; 2 μM, 48 h): 3.0% | sub-G1 population (NALM6 cells; 2 μM, single treatment, combination experiment): 1.3%
